Where two headings read alike, the source gives them in different places. Marks after values point to notes of the source that are not given here.
Assay: log P by HPLC (EEC Directive 79/831 Annex V.A8)
Type: physicochemical
[1] = [b] LC-MS, acidic range, pH 2.7, 0.1% aqueous formic acid and acetonitrile
[2] = [c] LC-MS, neutral range, pH 7.8, 0.001 molar aqueous ammonium hydrogencarbonate and acetonitrile
[3] = [a] HPLC, acidic range, pH 2.3, 0.1% aqueous phosphoric acid and acetonitrile
[4] = HPLC, pH 2.7, given in the preparation examples, read-out: logP (pH2.7)

With O=C(OCc1c(F)cc(F)cc1F)c1cccc(C2CCN(C(=O)Cn3nc(C(F)F)cc3C(F)F)CC2)n1 [Example 104] the “log P” value [1] was 3.57^[b].

With Cc1cc(C(F)(F)F)nn1CC(=O)N1CCC(c2cccc(C(=O)Sc3cccs3)n2)CC1 [Example 63] the “log P” value [1] was 3.85 and the “log P” value [2] was 3.88.

For CN(Cc1ccc(Cl)cc1Cl)C(=O)c1cccc(C2CCN(C(=O)Cn3nc(C(F)F)cc3C(F)F)CC2)n1 [Example 79], the “log P” value [1] was 3.66 and the “log P” value [2] was 3.73.

In the case of Cc1csc(COC(=O)c2cccc(C3CCN(C(=O)Cn4nc(C(F)F)cc4C(F)F)CC3)n2)c1 [Example 109], the “log P” value [1] is reported as 3.6^[b].

For Cc1cc(C(F)(F)F)nn1CC(=O)N1CCC(c2cccc(C(=O)OC3CCCc4ccccc43)n2)CC1 (centres unmarked) [Example 35], the “log P” value [1] was 4.15^[b].

For O=C(Oc1ccc2ccccc2c1)c1cccc(C2CCN(C(=O)Cn3nc(C(F)F)cc3C(F)F)CC2)n1 [Example 111], the “log P” value [1] was 3.86^[b].

With Cc1cc(C(F)(F)F)nn1CC(=O)N1CCN(c2cccc(C(=O)OCc3ccccc3Cl)n2)CC1 [Example 72] the “log P” value [1] was 3.89 and the “log P” value [2] was 3.9.

In the case of O=C(NCc1ccc(F)cc1F)c1cccc(C2CCN(C(=O)Cn3nc(C(F)F)cc3C(F)F)CC2)n1 [Example 87], the “log P” value [1] is reported as 3.22 and the “log P” value [2] is reported as 3.24.

With O=C(SCc1ccccc1Cl)c1cccc(C2CCN(C(=O)Cn3nc(C(F)F)cc3C(F)F)CC2)n1 [Example 126] the “log P” value [3] was 4.44 and the “log P” value [2] was 4.49.

In the case of O=C(OCc1c(F)cccc1F)c1cccc(C2CCN(C(=O)Cn3nc(C(F)F)cc3C(F)F)CC2)n1 [Example 107], the “log P” value [1] is reported as 3.44^[b].

With Cc1cc(C(F)(F)F)nn1CC(=O)N1CCN(c2cccc(C(=O)N(C)C3CCCc4ccccc43)n2)CC1 (centres unmarked) [Example 147] the “log P” value [1] was 3.55 and the “log P” value [2] was 3.59.

For Cc1cc(C(F)(F)F)nn1CC(=O)N1CCC(c2cccc(C(=O)OCc3ccccc3OC(F)(F)F)n2)CC1 [Example 8], the “log P” value [1] was 4.06^[b].

In the case of CC(NC(=O)c1cccc(C2CCN(C(=O)Cn3nc(C(F)F)cc3C(F)F)CC2)n1)c1ccccc1Cl (centres unmarked) [Example 82], the “log P” value [1] is reported as 3.53 and the “log P” value [2] is reported as 3.61.

For Cc1cc(C(F)(F)F)nn1CC(=O)N1CCC(c2cccc(C(=O)Nc3c(F)cccc3F)n2)CC1 [Example 28], the “log P” value [1] was 3.13 and the “log P” value [2] was 3.15.

With Cc1cc(C(F)(F)F)nn1CC(=O)N1CCC(c2cccc(C(=O)N(C)c3ccccc3Cl)n2)CC1 [Example 10] the “log P” value [1] was 3.18 and the “log P” value [2] was 3.2.

With CN(Cc1ccccc1Cl)C(=O)c1cccc(N2CCN(C(=O)Cn3nc(C(F)F)cc3C(F)F)CC2)n1 [Example 148] the “log P” value [3] was 3.22 and the “log P” value [2] was 3.25.

With CCCCCC(C)NC(=O)c1cccc(C2CCN(C(=O)Cn3nc(C(F)(F)F)cc3C)CC2)n1 (racemic) [Example 17] the “log P” value [1] was 4.17 and the “log P” value [2] was 4.13.

With C=CCCCCOC(=O)c1cccc(C2CCN(C(=O)Cn3nc(C(F)(F)F)cc3C)CC2)n1 [Example 39] the “log P” value [1] was 3.86^[b].

With O=C(SCc1c(F)cccc1F)c1cccc(N2CCN(C(=O)Cn3nc(C(F)F)cc3C(F)F)CC2)n1 [Example 125] the “log P” value [3] was 4.11 and the “log P” value [2] was 4.14.

With Cc1cc(C(F)(F)F)nn1CC(=O)N1CCC(c2cccc(C(=O)OCc3ccccc3F)n2)CC1 [Example 47] the “log P” value [1] was 3.52^[b].

For COC1CCCCC1OC(=O)c1cccc(C2CCN(C(=O)Cn3nc(C(F)F)cc3C(F)F)CC2)n1 (centres unmarked) [Example 97], the “log P” value [1] was 4.17^[b].

Work on O=C(O)c1cccc(N2CCN(C(=O)Cn3nc(C(F)F)cc3C(F)F)CC2)n1 [6-(4-{[3,5-Bis(difluoromethyl)-1H-pyrazol-1-yl]acetyl}piperazin-1-yl)pyridine-2-carboxylic acid] yielded a chromatographic logP [4] of 0.68.

In the case of Cc1ccsc1CNC(=O)c1cccc(C2CCN(C(=O)Cn3nc(C(F)(F)F)cc3C)CC2)n1 [Example 27], the “log P” value [1] is reported as 3.29 and the “log P” value [2] is reported as 3.34.

In the case of O=C(OC1C=CCCC1)c1cccc(C2CCN(C(=O)Cn3nc(C(F)F)cc3C(F)F)CC2)n1 (centres unmarked) [Example 98], the “log P” value [1] is reported as 3.87^[b].

In the case of Cc1cc(C(F)(F)F)nn1CC(=O)N1CCN(c2cccc(C(=O)SCc3c(F)cccc3F)n2)CC1 [Example 149], the “log P” value [1] is reported as 4.11 and the “log P” value [2] is reported as 4.29.

In the case of Cc1cc(C(F)(F)F)nn1CC(=O)N1CCC(c2cccc(C(=O)OCC3CCCCC3)n2)CC1 [Example 38], the “log P” value [1] is reported as 4.38^[b].

With Cc1cc(C(F)(F)F)nn1CC(=O)N1CCC(c2cccc(C(=O)Sc3cccc4ccccc34)n2)CC1 [Example 60] the “log P” value [1] was 4.41 and the “log P” value [2] was 4.46.

With Cc1cc(C(F)(F)F)nn1CC(=O)N1CCN(c2cccc(C(=O)N(C)C3CCCCC3)n2)CC1 [Example 64] the “log P” value [1] was 3.19 and the “log P” value [2] was 3.21.

For Cc1cc(C(F)(F)F)nn1CC(=O)N1CCC(c2cccc(C(=O)OCC(C)(C)C)n2)CC1 [Example 37], the “log P” value [1] was 3.86^[b].

With Cc1cc(C(F)(F)F)nn1CC(=O)N1CCC(c2cccc(C(=O)NCc3ccc(Cl)cc3Cl)n2)CC1 [Example 21] the “log P” value [1] was 4.1 and the “log P” value [2] was 4.

For CN(C(=O)c1cccc(C2CCN(C(=O)OC(C)(C)C)CC2)n1)C1CCCc2ccccc21 (centres unmarked) [tert-butyl 4-{6-[methyl(1,2,3,4-tetrahydronaphthalen-1-yl)carbamoyl]pyridin-2-yl}piperidine-1-carboxylate], the chromatographic logP [4] was 5.09.

With O=C(SCc1c(F)cccc1F)c1cccc(C2CCN(C(=O)Cn3nc(C(F)F)cc3C(F)F)CC2)n1 [Example 113] the “log P” value [3] was 4.12 and the “log P” value [2] was 4.13.

With O=C(SCc1ccc(F)cc1)c1cccc(C2CCN(C(=O)Cn3nc(C(F)F)cc3C(F)F)CC2)n1 [Example 128] the “log P” value [3] was 4.1 and the “log P” value [2] was 4.15.

In the case of O=C(SC1CCCCC1)c1cccc(C2CCN(C(=O)Cn3nc(C(F)F)cc3C(F)F)CC2)n1 [Example 112], the “log P” value [3] is reported as 4.63 and the “log P” value [2] is reported as 4.65.

In the case of Cc1cc(C(F)(F)F)nn1CC(=O)N1CCC(c2cccc(C(=O)Nc3cccc4cccnc34)n2)CC1 [Example 31], the “log P” value [1] is reported as 4.02 and the “log P” value [2] is reported as 4.04.

In the case of O=C(OC1CCCc2ccccc21)c1cccc(C2CCN(C(=O)Cn3nc(C(F)F)cc3C(F)F)CC2)n1 (centres unmarked) [Example 100], the “log P” value [1] is reported as 4.07^[b].

In the case of Cc1ccccc1COC(=O)c1cccc(C2CCN(C(=O)Cn3nc(C(F)(F)F)cc3C)CC2)n1 [Example 44], the “log P” value [1] is reported as 3.8^[b].

In the case of CCOC(=O)c1cccc(C2CCN(C(=O)Cn3nc(C(F)(F)F)cc3C)CC2)n1 [Example 132], the “log P” value [1] is reported as 2.73^[b].

For Cc1cc(C(F)(F)F)nn1CC(=O)N1CCC(c2cccc(C(=O)OC3CCCCC3)n2)CC1 [Example 34], the “log P” value [1] was 3.9^[b].

With O=C(Sc1ccccc1)c1cccc(C2CCN(C(=O)Cn3nc(C(F)F)cc3C(F)F)CC2)n1 [Example 121] the “log P” value [3] was 3.8 and the “log P” value [2] was 3.85.

For C=CCCCCOC(=O)c1cccc(C2CCN(C(=O)Cn3nc(C(F)F)cc3C(F)F)CC2)n1 [Example 101], the “log P” value [1] was 3.8^[b].

With Cc1cc(C(F)(F)F)nn1CC(=O)N1CCC(c2cccc(C(=O)OCc3c(F)cccc3F)n2)CC1 [Example 48] the “log P” value [1] was 3.51^[b].

For O=C(NCc1ccccc1Cl)c1cccc(C2CCN(C(=O)Cn3nc(C(F)F)cc3C(F)F)CC2)n1 [Example 88], the “log P” value [1] was 3.35 and the “log P” value [2] was 3.39.

With Cc1cc(C(F)(F)F)nn1CC(=O)N1CCN(c2cccc(C(=O)OCc3c(F)cccc3F)n2)CC1 [Example 74] the “log P” value [1] was 3.54 and the “log P” value [2] was 3.55.

In the case of Cc1ccnc(COC(=O)c2cccc(C3CCN(C(=O)Cn4nc(C(F)(F)F)cc4C)CC3)n2)c1 [Example 50], the “log P” value [1] is reported as 3.67^[b].

In the case of O=C(NCc1cccs1)c1cccc(C2CCN(C(=O)Cn3nc(C(F)F)cc3C(F)F)CC2)n1 [Example 91], the “log P” value [1] is reported as 2.98 and the “log P” value [2] is reported as 2.97.

For Cc1cc(C(F)(F)F)nn1CC(=O)N1CCN(c2cccc(C(=O)NCc3cccs3)n2)CC1 [Example 67], the “log P” value [1] was 2.92 and the “log P” value [2] was 2.93.

For Cc1cc(C(F)(F)F)nn1CC(=O)N1CCC(c2cccc(C(=O)NCc3ccc(F)cc3F)n2)CC1 [Example 22], the “log P” value [1] was 3.36^[b]; 3.36^[c] and the “log P” value [2] was 3.36^[b]; 3.36^[c].

In the case of O=C(SCc1ccccc1Cl)c1cccc(N2CCN(C(=O)Cn3nc(C(F)F)cc3C(F)F)CC2)n1 [Example 127], the “log P” value [3] is reported as 4.42 and the “log P” value [2] is reported as 4.44.

For O=C(Oc1cccc2ccccc12)c1cccc(C2CCN(C(=O)Cn3nc(C(F)F)cc3C(F)F)CC2)n1 [Example 110], the “log P” value [1] was 3.82^[b].

Molecule O=C(O)c1cccc(C2CCN(C(=O)Cn3nc(C(F)F)cc3C(F)F)CC2)n1 [Example 135, 6-(1-{[3,5-Bis(difluoromethyl)-1H-pyrazol-1-yl]acetyl}piperidin-4-yl)pyridine-2-carboxylic acid] has a chromatographic logP (HPLC (LC-MS), [b] LC-MS, acidic range, pH 2.7, 0.1% aqueous formic acid and acetonitrile, read-out: log P) of 1.55 and a chromatographic logP [4] of 1.55.

For CN(C(=O)c1cccc(C2CCN(C(=O)Cn3nc(C(F)F)cc3C(F)F)CC2)n1)c1ccccc1Cl [Example 77], the “log P” value [1] was 3.01^[b]; 3.01^[c] and the “log P” value [2] was 3.01^[b]; 3.01^[c].

For CCCCCCCOC(=O)c1cccc(C2CCN(C(=O)Cn3nc(C(F)F)cc3C(F)F)CC2)n1 [Example 102], the “log P” value [1] was 4.59^[b].

For O=C(OCc1ccccc1OC(F)(F)F)c1cccc(C2CCN(C(=O)Cn3nc(C(F)F)cc3C(F)F)CC2)n1 [Example 7], the “log P” value [1] was 3.98^[b].

With Cc1cc(C(F)(F)F)nn1CC(=O)N1CCC(c2cccc(C(=O)N3CCOc4ccccc43)n2)CC1 [Example 15] the “log P” value [1] was 3.04^[b]; 3.04^[c] and the “log P” value [2] was 3.04^[b]; 3.04^[c].

In the case of Cc1cc(C(F)(F)F)nn1CC(=O)N1CCC(c2cccc(C(=O)N(C)Cc3ccccn3)n2)CC1 [Example 14], the “log P” value [2] is reported as 2.23^[c].

In the case of Cc1ccccc1CSC(=O)c1cccc(N2CCN(C(=O)Cn3nc(C(F)(F)F)cc3C)CC2)n1 [Example 145], the “log P” value [1] is reported as 4.52 and the “log P” value [2] is reported as 4.55.

In the case of O=C(NCc1c(F)cccc1F)c1cccc(C2CCN(C(=O)Cn3nc(C(F)F)cc3C(F)F)CC2)n1 [Example 89], the “log P” value [1] is reported as 3.11 and the “log P” value [2] is reported as 3.14.

With CCOC(=O)c1cccc(N2CCN(C(=O)OC(C)(C)C)CC2)n1 [tert-Butyl 4-[6-(ethoxycarbonyl)pyridin-2-yl]piperazine-1-carboxylate] the chromatographic logP [4] was 3.32.
